The compounds below were run against T1, Human Recombinant Matriptase 2 (Homo sapiens, UniProt Q8IU80) (assay: Matriptase 2 fluorescence based inhibition assay, Method A (100 mM TRIS pH 9, 1 mg/mL BSA)). Conditions: 1 uM compound; Assay Used = A; read-out: Mar-2 % inhibition at 1 uM.
T1 construct: purchased Enzo Life Sciences (an in-house preparation was also used) ALX-201-752-1
T1 sequence (Q8IU80 1-811): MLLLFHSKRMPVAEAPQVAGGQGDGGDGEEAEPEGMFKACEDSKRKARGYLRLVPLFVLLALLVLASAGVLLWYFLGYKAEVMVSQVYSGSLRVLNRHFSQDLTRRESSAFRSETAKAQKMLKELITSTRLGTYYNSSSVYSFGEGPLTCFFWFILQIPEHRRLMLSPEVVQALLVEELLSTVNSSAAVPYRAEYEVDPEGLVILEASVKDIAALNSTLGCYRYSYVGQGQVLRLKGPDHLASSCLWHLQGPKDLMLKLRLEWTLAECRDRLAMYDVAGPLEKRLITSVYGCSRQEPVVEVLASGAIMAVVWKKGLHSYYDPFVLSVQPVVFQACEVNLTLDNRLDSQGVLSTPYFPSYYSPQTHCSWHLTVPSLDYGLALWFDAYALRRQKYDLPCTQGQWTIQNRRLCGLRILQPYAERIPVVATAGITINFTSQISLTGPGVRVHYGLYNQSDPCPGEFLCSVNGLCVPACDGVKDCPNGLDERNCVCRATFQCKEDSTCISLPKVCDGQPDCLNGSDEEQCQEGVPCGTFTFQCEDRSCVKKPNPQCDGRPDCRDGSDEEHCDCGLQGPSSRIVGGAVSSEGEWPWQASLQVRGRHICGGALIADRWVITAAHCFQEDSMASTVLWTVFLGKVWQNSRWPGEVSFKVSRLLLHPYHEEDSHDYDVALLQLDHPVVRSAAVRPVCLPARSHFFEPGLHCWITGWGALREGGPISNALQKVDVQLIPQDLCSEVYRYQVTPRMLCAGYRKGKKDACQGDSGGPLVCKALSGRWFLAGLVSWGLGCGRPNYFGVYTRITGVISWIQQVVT
Format: biochemical
Procedure: Test compounds were evaluated for their potential to inhibit Human Recombinant Matriptase 2 (in-house and commercial protein from Enzo Life Sciences—cat log -ALX-201-752-1) using fluorescence based assay. The concentration of Recombinant Matriptase 2 and the substrate used in the assay was: 7 nM (commercial) and 15 nM (Inhouse Matriptase 2) and 100 μM (Boc-Gln-Ala-Arg-7-amido-4-methyl coumarin hydrobromide—Cat log: B4153-Sigma) respectively. The assay buffer used was 100 mM TRIS pH 9, 1 mg/mL BSA. The assay was performed using 384 well black flat bottom plate from grenier (Cat log: 781076) at 25° C. The enzyme and compound was preincubated for 30 mins, plate was read 60 mins after substrate addition at wavelength Ex: 360/Em: 480 nm. The final assay volume was 20 μl. Stock solution of compounds were initially prepared in DMSO and appropriate dilutions were made for screening and IC50 determination (final DMSO conc in the assay was 1%). All the measurements were carried out using the Spectramax M5, Molecular devices. The compounds were screened at 1 and 10 μM concentration and IC50 was determined for the interested compounds.
To determine IC50 values, dose response curves were generated by plotting percentage inhibition as a function of inhibitor concentration and the data was fitted to sigmoidal non-linear regression equation (variable slope) using Graph Pad prism software V7.

inhibition at 1 µM [%]	Structure (SMILES)
0 to 25	N/C(=N\O)c1ccc2cc(C(=O)NCC3CCNCC3)n(Cc3ccc4ccccc4c3)c2c1 [Compound I-398, 6-(N′-hydroxycarbamimidoyl)-1-(naphthalen-2-ylmethyl)-N-(piperidin-4-ylmethyl)-1H-indole-2-carboxamide]

Same assay, conditions: 1 uM; Assay Used A; read-out: Mar-2 % inhibition at 1 uM

inhibition at 1 µM [%]	Structure (SMILES)
0 to 25	N=C(N)c1ccc2cc(C(=O)Nc3ccc(F)cc3)n(Cc3ccc(C(N)=O)cc3)c2c1 [Compound I-59, 6-Carbamimidoyl-1-(4-carbamoylbenzyl)-N-(4-fluorophenyl)-1H-indole-2-carboxamide]
25 to 50	N=C(N)c1ccc2cc(C(=O)Nc3cccc4cnccc34)n(Cc3ccc(C(N)=O)cc3)c2c1 [Compound I-73]
25 to 50	N=C(N)c1ccc2cc(C(=O)NC3CCN(C(=O)CCN)CC3)n(Cc3ccc(C(F)(F)F)cc3)c2c1 [Compound I-8, N-(1-(3-aminopropanoyl)piperidin-4-yl)-6-carbamimidoyl-1-(4-(trifluoromethyl)benzyl)-1H-indole-2-carboxamide]
0 to 25	NC(=O)c1ccc(Cn2c(C(=O)Nc3cccc(-c4ccccn4)c3)cc3ccc(C(N)=O)cc32)cc1 [Compound I-136, 1-(4-Carbamoylbenzyl)-N^2-(3-(pyridin-2-yl)phenyl)-1H-indole-2,6-dicarboxamide]
25 to 50	N=C(N)c1ccc2cc(C(=O)NC3CCC(N4CCCC4)CC3)n(Cc3ccc(C(N)=O)cc3)c2c1 (stereo not shown) [Compound I-188]
0 to 25	N=C(N)c1ccc2cc(C(=O)Nc3ccc(F)nc3)n(Cc3ccc(C(N)=O)cc3)c2c1 [Compound I-173]
0 to 25	N=C(N)c1ccc2cc(C(=O)Nc3cc(F)c(F)c(Br)c3)n(Cc3ccc(C(N)=O)cc3)c2c1 [Compound I-130]
0 to 25	N=C(N)c1ccc2cc(C(=O)NCC3CCC(O)CC3)n(CCS(=O)(=O)c3ccccc3)c2c1 (stereo not shown) [Compound I-52]
0 to 25	N=C(N)c1ccc2cc(C(=O)Nc3cncc(F)c3)n(Cc3ccc(C(N)=O)cc3)c2c1 [Compound I-172]
0 to 25	C[C@@H](NC(=O)c1cc2ccc(C(=N)N)cc2n1Cc1ccc(C(N)=O)cc1)c1ccc(F)c(Cl)c1 [Compound I-113]
0 to 25	C=CCOc1cccc(NC(=O)c2cc3ccc(C(=N)N)cc3n2Cc2ccc(C(N)=O)cc2)c1 [Compound I-139]
25 to 50	N=C(N)c1ccc2cc(C(=O)N[C@H]3CC[C@H](N)CC3)n(Cc3cccnc3)c2c1 [Compound I-18]
0 to 25	CC(C)c1ccc(Cn2c(C(=O)NCC3CCCCC3)cc3ccc(C(=N)N)cc32)cc1 [Compound I-16]
0 to 25	Cc1ccc(NC(=O)c2cc3ccc(C(=N)N)cc3n2Cc2ccc(C(N)=O)cc2)cc1O [Compound I-71]
0 to 25	CO[C@H]1CCN(c2cccc(NC(=O)c3cc4ccc(C(=N)N)cc4n3Cc3ccc(C(N)=O)cc3)c2)C1 [Compound I-123]
0 to 25	N=C(N)c1ccc2cc(C(=O)Nc3cc(N4CCCC4)ccc3F)n(Cc3ccc(C(N)=O)cc3)c2c1 [Compound I-152]
0 to 25	NC(=O)c1ccc(Cn2c(C(=O)Nc3cccc(N4CCCC4)c3)cc3ccc(C(N)=O)cc32)cc1 [Compound I-117, 1-(4-Carbamoylbenzyl)-N^2-(3-(pyrrolidin-1-yl)phenyl)-1H-indole-2,6-dicarboxamide]
0 to 25	N=C(N)c1ccc2cc(C(=O)Nc3ccc4c(c3)CCC4)n(Cc3ccc(C(N)=O)cc3)c2c1 [Compound I-64]
25 to 50	N=C(N)c1ccc2cc(C(=O)N[C@H]3CC[C@H](N)CC3)n(CCc3ccc(F)cc3)c2c1 [Compound I-30]
0 to 25	C[C@@H](NC(=O)c1cc2ccc(C(=N)N)cc2n1Cc1ccc(C(N)=O)cc1)c1ccccc1 [Compound I-70]
0 to 25	N=C(N)c1ccc2cc(C(=O)Nc3cccc4c3CCC4)n(Cc3ccc(C(N)=O)cc3)c2c1 [Compound I-91]
0 to 25	N=C(N)c1ccc2cc(C(=O)NCCc3ccccc3)n(Cc3ccc(C(N)=O)cc3)c2c1 [Compound I-81]
25 to 50	N=C(N)c1ccc2cc(C(=O)NC3CCC(N)CC3)n(Cc3ccc(OC(F)(F)F)cc3)c2c1 (stereo not shown) [Compound I-11]
25 to 50	N=C(N)c1ccc2cc(C(=O)NCc3cccc(N4CCCC4)c3)n(Cc3ccc(C(N)=O)cc3)c2c1 [Compound I-100]
0 to 25	N=C(N)c1ccc2cc(C(=O)NC3CCC(F)(F)CC3)n(Cc3ccc(C(N)=O)cc3)c2c1 [Compound I-190]

Same assay, conditions: at 1 uM; Assay Used = A; read-out: Mar-2 % inhibition at 1 uM

inhibition at 1 µM [%]	Structure (SMILES)
25 to 50	N=C(N)c1ccc2c(N)c(C(=O)N3CCC(CCN)CC3)n(CCS(=O)(=O)c3ccccc3)c2c1 [Compound I-349, 3-Amino-2-(4-(2-aminoethyl)piperidine-1-carbonyl)-1-(2-(phenylsulfonyl)ethyl)-1H-indole-6-carboximidamide]
0 to 25	N=C(N)c1ccc2cc(C(=O)N3CCC(F)(F)C3)n(Cc3cccc(C(N)=O)c3)c2c1 [Compound I-324]
0 to 25	CC1CCC(NC(=O)c2cc3ccc(C(=N)N)cc3n2Cc2ccc(C(=O)N(C)C)cc2)CC1 (stereo not shown) [Compound I-218, 6-Carbamimidoyl-1-(4-(dimethylcarbamoyl)benzyl)-N-(4-methylcyclohexyl)-1H-indole-2-carboxamide]
25 to 50	N=C(N)c1ccc2cc(C(=O)N3CCC(CCN)CC3)n(CCc3ccc(F)cc3)c2c1 [Compound I-301]
0 to 25	N=C(N)c1ccc2c(N)c(C(=O)N3CCc4ccccc4C3)n(CCS(=O)(=O)c3ccccc3)c2c1 [Compound I-352]
0 to 25	N=C(N)c1ccc2cc(C(=O)N3CC[C@@H](F)C3)n(CCS(=O)(=O)c3ccccc3)c2c1 [Compound I-341]
0 to 25	NC(=O)c1ccc(Cn2c(C(=O)Nc3ccc(N4CCCC4)cc3)cc3ccc(/C(N)=N/O)cc32)cc1 [Compound I-268, 1-(4-Carbamoylbenzyl)-6-(N′-hydroxycarbamimidoyl)-N-(4-(pyrrolidin-1-yl)phenyl)-1H-indole-2-carboxamide]
0 to 25	CN(C)C(=O)c1ccc(Cn2c(C(=O)N3CCC(F)(F)C3)cc3ccc(C(=N)N)cc32)cc1 [Compound I-386]
0 to 25	N=C(N)c1ccc2cc(C(=O)N3CCC(F)CC3)n(CCS(=O)(=O)c3ccccc3)c2c1 [Compound I-343]
0 to 25	N=C(N)c1ccc2cc(C(=O)NCC3CCCCC3)n(Cc3ccc(C(N)=O)c(Cl)c3)c2c1 [Compound I-229, 6-Carbamimidoyl-1-(3-Chloro-4-carbamoyl-benzyl)-N-(cyclohexylmethyl)-1H-indole-2-carboxamide]
0 to 25	NC(=O)c1ccc(Cn2c(C(=O)Nc3cc(N4CCCC4)ccn3)cc3ccc(/C(N)=N/O)cc32)cc1 [Compound I-269, 1-(4-Carbamoylbenzyl)-6-(N′-hydroxycarbamimidoyl)-N-(4-(pyrrolidin-1-yl)pyridin-2-yl)-1H-indole-2-carboxamide]
0 to 25	N=C(N)c1ccc2c(N)c(C(=O)N3CCC(CCN)CC3)n(Cc3ccc(Oc4ccccc4)cc3)c2c1 [Compound I-348]
0 to 25	N=C(N)c1ccc2cc(C(=O)N3CCC(C(=O)NCCN)CC3)n(CCc3ccccc3)c2c1 [Compound I-357]
25 to 50	N=C(N)c1ccc2cc(C(=O)N[C@H]3CC[C@H](N)CC3)n(Cc3ccc(-c4ccccc4)cc3)c2c1 [Compound I-234]
0 to 25	NCCC(=O)Nc1ccc(Cn2c(C(=O)N3CCC(CCN)CC3)cc3ccc(/C(N)=N/O)cc32)cc1 [Compound I-383]
0 to 25	N=C(N)c1ccc2cc(C(=O)NCC3CCCCC3)n(Cc3ccc(C(=O)NCCN)cc3)c2c1 [Compound I-225, 1-(4-((2-Aminoethyl)carbamoyl)benzyl)-6-carbamimidoyl-N-(cyclohexylmethyl)-1H-indole-2-carboxamide]
0 to 25	N=C(N)c1ccc2cc(C(=O)N3CCC(F)(F)C3)n(Cc3ccc(C(=O)NC4CC4)cc3)c2c1 [Compound I-387]

Reference: patent US12428415B2, “Matriptase 2 inhibitors and uses thereof” (Disc Medicine, Inc., priority 2018, dated 2025)
